Where “and” joins values, the source holds several entries; their conditions need not be identical. Identical values can stand only once.
What was measured:
[1] = biological target: T1, 5-hydroxytryptamine receptor 2C (Rattus norvegicus, UniProt P08909); assay: Inhibition of [3H]mesulergine binding to rat 5-hydroxytryptamine 2C receptor
T1 sequence (P08909 whole entry): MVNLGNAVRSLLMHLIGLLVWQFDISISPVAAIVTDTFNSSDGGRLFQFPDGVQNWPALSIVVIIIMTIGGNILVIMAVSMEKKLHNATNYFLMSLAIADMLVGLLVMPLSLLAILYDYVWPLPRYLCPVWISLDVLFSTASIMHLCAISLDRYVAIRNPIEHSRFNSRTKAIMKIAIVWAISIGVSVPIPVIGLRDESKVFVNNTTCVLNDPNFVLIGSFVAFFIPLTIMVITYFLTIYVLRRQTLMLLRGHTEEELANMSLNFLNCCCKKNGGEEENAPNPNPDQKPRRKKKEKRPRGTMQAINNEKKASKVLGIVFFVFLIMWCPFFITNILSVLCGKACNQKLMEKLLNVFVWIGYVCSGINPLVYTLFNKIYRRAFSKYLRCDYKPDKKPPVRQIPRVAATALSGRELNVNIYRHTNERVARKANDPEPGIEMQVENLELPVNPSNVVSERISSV

D(1A) dopamine receptor = D(1A) dopamine receptor (Rattus norvegicus, UniProt P18901)
D(1A) dopamine receptor, sequence (P18901 whole entry): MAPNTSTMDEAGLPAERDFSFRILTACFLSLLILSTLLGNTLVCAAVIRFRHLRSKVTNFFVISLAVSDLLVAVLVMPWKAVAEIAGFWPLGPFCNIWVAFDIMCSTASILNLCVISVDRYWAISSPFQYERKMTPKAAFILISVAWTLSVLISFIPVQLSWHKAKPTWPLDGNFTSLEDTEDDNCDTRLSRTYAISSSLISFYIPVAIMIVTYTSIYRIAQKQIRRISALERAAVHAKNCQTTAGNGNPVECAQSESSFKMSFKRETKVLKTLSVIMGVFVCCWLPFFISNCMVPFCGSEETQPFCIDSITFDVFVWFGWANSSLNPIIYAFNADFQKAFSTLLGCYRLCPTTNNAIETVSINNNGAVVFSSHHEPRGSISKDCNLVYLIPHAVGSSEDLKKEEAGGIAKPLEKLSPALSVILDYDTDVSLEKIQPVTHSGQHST
Description: Inhibition of [3H]-SCH- 23390 binding to rat dopamine D1 receptor

D(3) dopamine receptor = D(3) dopamine receptor (Homo sapiens, UniProt P35462); assay: biochemical
D(3) dopamine receptor, sequence (P35462 whole entry): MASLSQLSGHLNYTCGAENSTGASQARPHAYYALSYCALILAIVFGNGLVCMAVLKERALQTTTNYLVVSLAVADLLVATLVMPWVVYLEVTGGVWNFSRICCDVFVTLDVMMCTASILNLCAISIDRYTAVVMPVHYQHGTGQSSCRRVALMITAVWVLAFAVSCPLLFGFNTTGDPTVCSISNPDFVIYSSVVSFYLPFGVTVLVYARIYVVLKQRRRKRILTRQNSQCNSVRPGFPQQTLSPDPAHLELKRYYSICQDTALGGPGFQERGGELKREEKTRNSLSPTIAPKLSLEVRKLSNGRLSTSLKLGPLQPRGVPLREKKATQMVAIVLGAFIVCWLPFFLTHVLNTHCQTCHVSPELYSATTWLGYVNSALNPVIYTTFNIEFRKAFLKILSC
Description: Inhibition of [3H]7-OH-DPAT binding to Dopamine D3 receptor expressed in Sf9 cells

Rattus norvegicus [2] = assay: In vivo effective dose against catalepsy response was determined in rats; type: functional
Rattus norvegicus [3] = assay: In vivo effective dose was determined against apomorphine climbing in rats; type: functional
Rattus norvegicus [4] = assay: In vivo effective dose of compound against 5-MeO-DMT induced head twitches in rats; type: functional
Rattus norvegicus [5] = assay: In vivo effective dose against 5-MeO-DMT-induced head twitches in rats was determined; type: functional
Rattus norvegicus [6] = species on record: Rattus norvegicus; assay: animal or person
Description: In vivo effective dose against conditioned avoidance response was determined in rats

Rattus norvegicus [7] = species on record: Rattus norvegicus; assay: animal or person; remark: listed apart in the source
Description: In vivo effective dose against spontaneous locomotor activity was determined in rats

Structure (SMILES)	Ki [1] [nM]	Ki (D(1A) dopamine receptor) [nM]	Ki (D(3) dopamine receptor) [nM]	ED50 (Rattus norvegicus [2])	ED50 (Rattus norvegicus [3])	ED50 (Rattus norvegicus [4]) [mg/kg]	ED50 (Rattus norvegicus [5]) [µmol/kg]	ED50 (Rattus norvegicus [6])	ED50 (Rattus norvegicus [7])
CN1CCN(C2=Cc3cc(Cl)ccc3Cn3cccc32)CC1	3.8	47.4	24.2						
Cc1ccc2n1Cc1ccccc1C=C2N1CCN(C)CC1	15	230	88.6						
CN1CCN(C2=Cc3ccccc3Cn3cccc32)CC1			224	> 100 mg/kg and > 357 µmol/kg	0.5 µmol/kg and 0.14 mg/kg	0.12	0.43	0.56 mg/kg and 2 µmol/kg	1.6 mg/kg and 5.73 µmol/kg
CN1CCN(C2=Cn3cccc3Sc3ccccc32)CC1				> 100 mg/kg and > 336 µmol/kg	1.64 mg/kg and 5.51 µmol/kg	1.99	6.69		0.51 mg/kg
CN1CCN(C2=Nc3cc(Cl)ccc3Nc3ccccc32)CC1 [CLOZAPINE]				> 100 mg/kg and > 306 µmol/kg	5.72 mg/kg and 17.5 µmol/kg	5.35	16.4		
CN1CCN(C2=Cn3cccc3Sc3sccc32)CC1		4.91	25						

Source: ChEMBL document CHEMBL1144408, “Novel atypical antipsychotic agents: rational design, an efficient palladium-catalyzed route, and pharmacological studies” (J Med Chem, 2005)
